Laboratory results from article PMC8487611 (ACS chemical neuroscience, 2021).

Molecular target: α3β4 nicotinic acetylcholine receptor (mouse) (Mus musculus, UniProt Q8R493+Q8R4G9)
Assay: two-electrode voltage clamp of Xenopus oocytes, block of ACh
Assay type: cell-based

α3β4 nicotinic acetylcholine receptor (mouse), sequence (Q8R4G9 26-499): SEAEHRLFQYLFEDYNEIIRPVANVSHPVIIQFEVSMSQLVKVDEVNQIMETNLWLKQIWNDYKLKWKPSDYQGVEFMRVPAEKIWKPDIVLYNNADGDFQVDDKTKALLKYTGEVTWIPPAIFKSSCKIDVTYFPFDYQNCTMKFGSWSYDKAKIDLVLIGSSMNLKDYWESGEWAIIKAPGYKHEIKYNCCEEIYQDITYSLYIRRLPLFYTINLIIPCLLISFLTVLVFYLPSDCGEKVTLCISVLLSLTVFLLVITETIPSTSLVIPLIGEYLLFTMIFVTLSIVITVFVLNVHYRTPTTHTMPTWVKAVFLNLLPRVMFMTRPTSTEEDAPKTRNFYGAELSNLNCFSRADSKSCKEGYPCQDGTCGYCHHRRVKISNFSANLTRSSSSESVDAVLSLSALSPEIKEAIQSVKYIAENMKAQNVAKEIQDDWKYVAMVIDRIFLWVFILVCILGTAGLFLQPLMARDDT
α3β4 nicotinic acetylcholine receptor (mouse), sequence (Q8R493 21-495): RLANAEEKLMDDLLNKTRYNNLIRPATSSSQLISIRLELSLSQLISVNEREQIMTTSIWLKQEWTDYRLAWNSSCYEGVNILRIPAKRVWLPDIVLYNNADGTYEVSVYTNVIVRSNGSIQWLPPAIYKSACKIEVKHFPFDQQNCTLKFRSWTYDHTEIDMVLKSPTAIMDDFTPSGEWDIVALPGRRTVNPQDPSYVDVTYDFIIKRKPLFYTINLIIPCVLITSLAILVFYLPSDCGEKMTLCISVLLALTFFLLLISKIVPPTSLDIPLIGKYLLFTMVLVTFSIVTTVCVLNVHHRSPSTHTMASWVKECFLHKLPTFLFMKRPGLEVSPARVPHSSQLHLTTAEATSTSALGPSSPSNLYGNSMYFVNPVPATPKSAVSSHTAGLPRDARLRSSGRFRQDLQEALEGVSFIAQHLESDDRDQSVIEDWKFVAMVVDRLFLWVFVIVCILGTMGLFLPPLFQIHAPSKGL

molleamine C [compound 3]
IC50: 1430 nM
